Results taken from paper PMC8847695 (Frontiers in Chemistry, 2022).

Columns and labels:
Assay type in all cases: binding
Conditions in all cases: 1 = hit, 0 = no hit
IDO1 (1-435) = target: T1, IDO1 (1-435) (Homo sapiens, UniProt P14902); assay: STD-NMR fragment screening, IDO1
T1 construct: His-tag of pET15b with TEV site (thrombin site replaced) (cleaved yes); made in house; host or cells: E. coli Rosetta 2 (DE3) pLysS
Method in brief: (§1)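 Saturation-transfer difference NMR was run at 25°C and 700 MHz with 20 µM protein, two fragments at 1 mM each, and 10% DMSO-d6. On-resonance saturation was at 0.5–0.6 ppm and off-resonance at 40 ppm, with a 3 s Gaussian-pulse train. A hit required a difference-spectrum peak at least three times the local noise.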

AAK1 (121-471) = AAK1 (121-471) (Homo sapiens, UniProt Q2M2I8); assay: STD-NMR fragment screening, AAK1
Method in brief: as §1

DOT1L (1-416) = target: T2, DOT1L (1-416) (Homo sapiens, UniProt Q8TEK3); assay: STD-NMR fragment screening, DOT1L
T2 construct: made in house; host or cells: E. coli BL21 (DE3) pLysS
Method in brief: as §1

CAMK1G (1-320) = target: T3, CAMK1G (1-320) (Homo sapiens, UniProt Q96NX5); assay: STD-NMR fragment screening, CAMK1G
T3 construct: made in house; host or cells: E. coli BL21 (DE3) pLysS
Method in brief: as §1

T1 sequence (P14902 whole entry, the tested form may be a part): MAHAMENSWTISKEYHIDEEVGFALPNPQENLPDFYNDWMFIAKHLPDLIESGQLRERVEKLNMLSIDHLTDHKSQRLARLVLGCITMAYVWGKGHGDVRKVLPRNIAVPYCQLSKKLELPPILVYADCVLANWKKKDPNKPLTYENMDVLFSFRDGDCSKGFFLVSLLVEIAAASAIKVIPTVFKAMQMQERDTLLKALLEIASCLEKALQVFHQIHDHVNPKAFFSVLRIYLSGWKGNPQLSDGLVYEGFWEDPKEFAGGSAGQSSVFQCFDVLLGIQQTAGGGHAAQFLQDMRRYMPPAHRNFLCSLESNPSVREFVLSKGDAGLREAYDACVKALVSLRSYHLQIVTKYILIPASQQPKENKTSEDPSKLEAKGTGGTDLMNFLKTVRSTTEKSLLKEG
T3 sequence (Q96NX5 1-320): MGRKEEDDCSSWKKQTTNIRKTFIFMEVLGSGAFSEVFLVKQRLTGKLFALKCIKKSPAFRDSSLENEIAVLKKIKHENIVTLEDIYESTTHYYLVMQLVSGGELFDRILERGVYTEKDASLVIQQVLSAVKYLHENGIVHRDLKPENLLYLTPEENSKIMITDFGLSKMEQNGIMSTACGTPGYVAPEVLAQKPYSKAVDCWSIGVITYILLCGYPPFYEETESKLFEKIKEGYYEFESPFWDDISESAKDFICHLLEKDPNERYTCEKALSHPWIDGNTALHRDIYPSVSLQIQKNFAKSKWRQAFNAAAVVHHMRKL
AAK1 (121-471), sequence (Q2M2I8 46-315 limits assumed): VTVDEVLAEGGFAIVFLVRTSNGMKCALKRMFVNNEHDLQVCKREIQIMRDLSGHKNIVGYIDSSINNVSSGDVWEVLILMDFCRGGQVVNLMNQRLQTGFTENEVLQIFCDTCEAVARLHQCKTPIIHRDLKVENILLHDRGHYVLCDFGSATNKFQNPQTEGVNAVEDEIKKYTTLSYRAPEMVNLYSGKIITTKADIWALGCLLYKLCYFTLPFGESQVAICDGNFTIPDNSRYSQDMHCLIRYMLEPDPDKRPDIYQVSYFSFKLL
T2 sequence (Q8TEK3 1-416): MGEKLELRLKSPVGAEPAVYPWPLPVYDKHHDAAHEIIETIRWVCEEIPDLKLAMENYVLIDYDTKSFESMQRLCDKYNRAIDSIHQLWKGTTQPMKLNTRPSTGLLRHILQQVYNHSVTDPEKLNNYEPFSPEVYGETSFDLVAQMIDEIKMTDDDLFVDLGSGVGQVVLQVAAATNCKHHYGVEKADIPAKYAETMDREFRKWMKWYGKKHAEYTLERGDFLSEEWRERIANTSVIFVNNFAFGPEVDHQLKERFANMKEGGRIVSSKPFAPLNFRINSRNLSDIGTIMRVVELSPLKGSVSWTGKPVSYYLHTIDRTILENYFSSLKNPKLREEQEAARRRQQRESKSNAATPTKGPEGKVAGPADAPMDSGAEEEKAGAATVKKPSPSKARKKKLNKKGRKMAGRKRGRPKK

SMILES	IDO1 (STD-NMR hit flag) (IDO1 (1-435))	AAK1 (STD-NMR hit flag) (AAK1 (121-471))	DOT1L (STD-NMR hit flag) (DOT1L (1-416))	CAMK1G (STD-NMR hit flag) (CAMK1G (1-320))
O=C(O)c1cncc(Br)c1 [Fragment B02291261]	0	1	1	0
Fc1ncccc1I [Fragment B02291262]	0	0	0	0
NS(=O)(=O)c1cc(C(=O)O)ccc1Cl [Fragment B02291263]	0	0	0	0
O=C(O)c1cc(Br)c[nH]1 [Fragment B02291264]	0	0	0	0
Clc1n[nH]c2ccccc12 [Fragment B02291265]	0	1	0	1
Cn1c2nc(Br)nc-2c(O)n(C)c1=O [Fragment B02291266]	1	1	0	1
Clc1cnc(Cl)nc1 [Fragment B02291267]	0	0	0	0
Clc1ccncc1 [Fragment B02291269]	0	0	0	0
CCC(N)c1ccc(Cl)cc1 (stereo not shown) [Fragment B02291270]	1	1	1	1
N#Cc1ccnc(Cl)c1 [Fragment B02291271]	0	0	0	0
Brc1noc(C2CC2)n1 [Fragment B02291272]	0	0	0	0
CNc1cc(Cl)c2c(c1)OCO2 [Fragment B02294481]	0	0	0	0
FC(F)(F)c1cnc(Cl)nc1 [Fragment B02294482]	0	0	0	0
Cc1n[nH]c(C(=O)O)c1Br [Fragment B02294483]	0	1	0	0
Oc1ccc(Cl)cc1 [Fragment B02294485]	0	0	0	0
Clc1cnc2ccccn12 [Fragment B02294486]	1	1	0	1
COc1cc(Cl)cnc1OC [Fragment B02297394]	1	1	0	1
Nc1ccc(Br)c(C(=O)O)n1 [Fragment B02297395]	0	0	0	0
COc1ncc(Br)cc1C(=O)O [Fragment B02297396]	0	0	0	0
